Consider seven cell lines from the supplement of paper PMC10307832.

Holding throughout (assay): relative viability (nuclei count vs DMSO), 5 days (fraction); higher = more cells survive
Compound in test [1]: CN(C)C[C@@H]1CCn2cc(c3ccccc32)C2=C(C(=O)NC2=O)c2cn(c3ccccc23)CCO1 [Ruboxistaurin] + CC(C)C[C@H](NC(=O)[C@H](Cc1ccccc1)NC(=O)c1cnccn1)B(O)O [Bortezomib] (partner 0.002 µM)
The procedure, abridged: (§1)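 Nuclei were stained with Hoechst during a one-step fixation (final 0.05% Triton X-100, 1% formaldehyde, 1 ug/ml Hoechst) carried out 5 days after dosing, then counted on 4× images. The cells, lung cancer lines in 1536-well plates, had been dosed by pin tool the day after seeding with one drug alone or a fixed anchor-drug dose plus five library-drug doses (not always all listed) in √10 steps. Relative viability is the nuclei count in treated wells divided by that in vehicle wells, and each value is the median of duplicate plates.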

Compound in the test “Ruboxistaurin + OSI-027”: CN(C)C[C@@H]1CCn2cc(c3ccccc32)C2=C(C(=O)NC2=O)c2cn(c3ccccc23)CCO1 [Ruboxistaurin] + COc1cccc2cc(-c3nc([C@H]4CC[C@H](C(=O)O)CC4)n4ncnc(N)c34)[nH]c12 [OSI-027] (partner 0.5 µM)
An outline of the steps:
as §1

Compound in test [2]: CN(C)C[C@@H]1CCn2cc(c3ccccc32)C2=C(C(=O)NC2=O)c2cn(c3ccccc23)CCO1 [Ruboxistaurin] + C[C@@H](Oc1cc(-c2cnn(C3CCNCC3)c2)cnc1N)c1c(Cl)ccc(F)c1Cl [Crizotinib] (partner 1 µM)
An outline of the steps:
as §1

Compound in test [3]: CN(C)C[C@@H]1CCn2cc(c3ccccc32)C2=C(C(=O)NC2=O)c2cn(c3ccccc23)CCO1 [Ruboxistaurin] + Nc1nc2[nH]cc(CCc3ccc(C(=O)N[C@@H](CCC(=O)O)C(=O)O)cc3)c2c(=O)[nH]1 [Pemetrexed] (partner 0.2 µM)
The procedure, abridged: as §1

Compound in test [4]: CN(C)C[C@@H]1CCn2cc(c3ccccc32)C2=C(C(=O)NC2=O)c2cn(c3ccccc23)CCO1 [Ruboxistaurin] + Nc1ncn([C@H]2C[C@H](O)[C@@H](CO)O2)c(=O)n1 [Decitabine] (partner 2 µM)
An outline of the steps:
as §1

In the case of NCI-H3122, the relative viability in test [1] (first compound 0.08 µM) came out at 1.07; in test [1] (first compound 0.8 µM), 0.953; in test [1] (first compound 2.53 µM), 1.01; in test [1] (first compound 8 µM) it was 1.1; in the test with Ruboxistaurin + OSI-027 (first compound 0.08 µM), 0.921; with Ruboxistaurin + OSI-027 (first compound 0.8 µM), 0.811. The relative viability was 0.886 in the test with Ruboxistaurin + OSI-027 (first compound 2.53 µM); 0.582 in the test with Ruboxistaurin + OSI-027 (first compound 8 µM); 0.28 in test [2] (first compound 0.08 µM); 0.211 in test [2] (first compound 0.8 µM); 0.298 in test [2] (first compound 2.53 µM); 0.225 in test [2] (first compound 8 µM). The relative viability is 0.191 in test [3] (first compound 0.08 µM); 0.201 in test [3] (first compound 0.8 µM); 0.191 in test [3] (first compound 2.53 µM); 0.187 in test [3] (first compound 8 µM); 0.535 in test [4] (first compound 0.08 µM); 0.376 in test [4] (first compound 0.8 µM). Further, the relative viability in test [4] (first compound 2.53 µM) was determined as 0.466; in test [4] (first compound 8 µM) it was 0.426.
Consider PC-3 [JPC-3], for which the relative viability amounted to 0.855 in test [1] (first compound 0.08 µM); 0.804 in test [1] (first compound 0.8 µM); 0.793 in test [1] (first compound 2.53 µM); 0.85 in test [1] (first compound 8 µM); 0.922 with Ruboxistaurin + OSI-027 (first compound 0.08 µM); 0.701 in the test with Ruboxistaurin + OSI-027 (first compound 0.8 µM). Further, the relative viability in the test with Ruboxistaurin + OSI-027 (first compound 2.53 µM) was 0.72; in the test with Ruboxistaurin + OSI-027 (first compound 8 µM), 0.622; in test [2] (first compound 0.08 µM) it was 1.03; in test [2] (first compound 0.8 µM) it was 0.958; in test [2] (first compound 2.53 µM), 1; in test [2] (first compound 8 µM), 1.02. The relative viability in test [3] (first compound 0.08 µM) is 1.22; in test [3] (first compound 0.8 µM), 1.09; in test [3] (first compound 2.53 µM), 1.17; in test [3] (first compound 8 µM), 1.04; in test [4] (first compound 0.08 µM), 0.897; in test [4] (first compound 0.8 µM), 0.814. For the same cell line, the relative viability was 0.922 in test [4] (first compound 2.53 µM) and 0.838 in test [4] (first compound 8 µM).
For PC-14, the relative viability in test [1] (first compound 0.08 µM) worked out at 1.11; in test [1] (first compound 0.8 µM) it was 0.743; in test [1] (first compound 2.53 µM), 0.899; in test [1] (first compound 8 µM) it was 1.1; with Ruboxistaurin + OSI-027 (first compound 0.08 µM), 1.12; in the test with Ruboxistaurin + OSI-027 (first compound 0.8 µM) it was 0.721. Besides, the relative viability with Ruboxistaurin + OSI-027 (first compound 2.53 µM) is 0.811; with Ruboxistaurin + OSI-027 (first compound 8 µM), 0.452; in test [2] (first compound 0.08 µM), 0.932; in test [2] (first compound 0.8 µM), 0.821; in test [2] (first compound 2.53 µM) it was 0.958; in test [2] (first compound 8 µM) it was 0.929. For the same cell line, the relative viability in test [3] (first compound 0.08 µM) stood at 0.135; in test [3] (first compound 0.8 µM), 0.136; in test [3] (first compound 2.53 µM) it was 0.136; in test [3] (first compound 8 µM), 0.115; in test [4] (first compound 0.08 µM), 0.283; in test [4] (first compound 0.8 µM) it was 0.203. The relative viability in test [4] (first compound 2.53 µM) was 0.293; in test [4] (first compound 8 µM), 0.295.
For RERF-LC-KJ, the relative viability in test [1] (first compound 0.08 µM) was 1.09; in test [1] (first compound 0.8 µM), 0.992; in test [1] (first compound 2.53 µM) it was 1.1; in test [1] (first compound 8 µM), 0.937; with Ruboxistaurin + OSI-027 (first compound 0.08 µM), 0.627; with Ruboxistaurin + OSI-027 (first compound 0.8 µM), 0.497. Besides, the relative viability with Ruboxistaurin + OSI-027 (first compound 2.53 µM) was 0.461; with Ruboxistaurin + OSI-027 (first compound 8 µM) it was 0.415; in test [2] (first compound 0.08 µM), 0.811; in test [2] (first compound 0.8 µM), 0.766; in test [2] (first compound 2.53 µM), 0.812; in test [2] (first compound 8 µM) it was 0.926. Moreover, the relative viability in test [3] (first compound 0.08 µM) is 0.48; in test [3] (first compound 0.8 µM), 0.46; in test [3] (first compound 2.53 µM), 0.483; in test [3] (first compound 8 µM), 0.446; in test [4] (first compound 0.08 µM), 0.784; in test [4] (first compound 0.8 µM) it was 0.587. Further, the relative viability in test [4] (first compound 2.53 µM) is 0.743; in test [4] (first compound 8 µM), 0.682.
In the case of SK-LU-1, the relative viability in test [1] (first compound 0.08 µM) stood at 1.37; in test [1] (first compound 0.8 µM), 1.03; in test [1] (first compound 2.53 µM) it was 1.22; in test [1] (first compound 8 µM) it was 1.07; in the test with Ruboxistaurin + OSI-027 (first compound 0.08 µM) it was 0.386; with Ruboxistaurin + OSI-027 (first compound 0.8 µM), 0.322. Besides, the relative viability with Ruboxistaurin + OSI-027 (first compound 2.53 µM) was 0.307; with Ruboxistaurin + OSI-027 (first compound 8 µM), 0.264; in test [2] (first compound 0.08 µM), 1.03; in test [2] (first compound 0.8 µM) it was 0.734; in test [2] (first compound 2.53 µM) it was 0.869; in test [2] (first compound 8 µM), 0.583. The relative viability is 0.944 in test [3] (first compound 0.08 µM); 0.913 in test [3] (first compound 0.8 µM); 1.12 in test [3] (first compound 2.53 µM); 0.954 in test [3] (first compound 8 µM); 0.744 in test [4] (first compound 0.08 µM); 0.573 in test [4] (first compound 0.8 µM). The results for the relative viability in test [4] (first compound 2.53 µM) and in test [4] (first compound 8 µM) were 0.668 and 0.751, respectively.
For the cell line SW 1573, the relative viability came out at 0.892 in test [1] (first compound 0.08 µM); 0.973 in test [1] (first compound 0.8 µM); 0.983 in test [1] (first compound 2.53 µM); 1.05 in test [1] (first compound 8 µM); 0.729 with Ruboxistaurin + OSI-027 (first compound 0.08 µM); 0.459 with Ruboxistaurin + OSI-027 (first compound 0.8 µM). The relative viability was 0.541 with Ruboxistaurin + OSI-027 (first compound 2.53 µM); 0.494 with Ruboxistaurin + OSI-027 (first compound 8 µM); 0.855 in test [2] (first compound 0.08 µM); 0.74 in test [2] (first compound 0.8 µM); 0.942 in test [2] (first compound 2.53 µM); 0.688 in test [2] (first compound 8 µM). Moreover, the relative viability in test [3] (first compound 0.08 µM) amounted to 0.923; in test [3] (first compound 0.8 µM) it was 0.803; in test [3] (first compound 2.53 µM), 0.795; in test [3] (first compound 8 µM) it was 0.704; in test [4] (first compound 0.08 µM) it was 0.454; in test [4] (first compound 0.8 µM) it was 0.445. Further, the relative viability turned out to be 0.58 in test [4] (first compound 2.53 µM) and 0.487 in test [4] (first compound 8 µM).
In the case of UMC-11, the relative viability in test [1] (first compound 0.08 µM) amounted to 0.725; in test [1] (first compound 0.8 µM), 0.667; in test [1] (first compound 2.53 µM), 0.691; in test [1] (first compound 8 µM), 0.564; with Ruboxistaurin + OSI-027 (first compound 0.08 µM) it was 0.437; with Ruboxistaurin + OSI-027 (first compound 0.8 µM), 0.403. Also, the relative viability with Ruboxistaurin + OSI-027 (first compound 2.53 µM) was 0.37; with Ruboxistaurin + OSI-027 (first compound 8 µM), 0.301; in test [2] (first compound 0.08 µM), 0.537; in test [2] (first compound 0.8 µM) it was 0.554; in test [2] (first compound 2.53 µM), 0.64; in test [2] (first compound 8 µM), 0.465. In addition, the relative viability was 0.823 in test [3] (first compound 0.08 µM); 0.721 in test [3] (first compound 0.8 µM); 0.688 in test [3] (first compound 2.53 µM); 0.606 in test [3] (first compound 8 µM); 0.672 in test [4] (first compound 0.08 µM); 0.51 in test [4] (first compound 0.8 µM). Besides, the relative viability was 0.676 in test [4] (first compound 2.53 µM) and 0.61 in test [4] (first compound 8 µM).
